Test results taken from patent publication US10414754B2, “Indolizine compounds, a process for their preparation and pharmaceutical compositions containing them” (LES LABORATOIRES SERVIER, priority 2013, dated 2019).
Where a name gives a salt, the structure may show the parent alone.

Assays:
Bcl-2 protein = biological target: T1, Bcl-2 protein (histag-Bcl-2, UniProtKB P10415) (Homo sapiens, UniProt P10415); assay: Inhibition of Bcl-2 by the fluorescence polarisation technique; format: binding; settings: fluorescence polarisation, 2 hours incubation; read-out: IC50 (nM) Bcl-2 FP
T1 construct: His tag
T1 sequence (P10415 whole entry): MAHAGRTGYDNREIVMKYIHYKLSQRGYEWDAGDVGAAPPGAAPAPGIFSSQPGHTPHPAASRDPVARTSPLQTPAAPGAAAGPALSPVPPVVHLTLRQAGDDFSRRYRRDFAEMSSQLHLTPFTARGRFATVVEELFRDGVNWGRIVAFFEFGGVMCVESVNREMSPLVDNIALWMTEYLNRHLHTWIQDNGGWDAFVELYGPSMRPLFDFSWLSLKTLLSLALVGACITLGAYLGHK
Method: The fluorescence polarisation tests were carried out on microplates (384 wells). The Bcl-2 protein, labelled (histag-Bcl-2 such that Bcl-2 corresponds to the UniProtKB® primary accession number: P10415), at a final concentration of 2.50×10^−8 M, is mixed with a fluorescent peptide (Fluorescein-[…]), at a final concentration of 1.00×10^−8M in a buffer solution (Hepes 10 mM, NaCl 150 mM, Tween20 0.05%, pH 7.4), in the presence or absence of increasing concentrations of test compounds. After incubation for 2 hours, the fluorescence polarisation is measured.

[1] = test system: RS4;11 leukaemia tumour line; assay: In vitro cytotoxicity (MTT) on RS4;11; format: cell-based; settings: Homo sapiens; RS4;11 cells, 48 hours exposure
Method: The cytotoxicity studies were carried out on the RS4;11 leukaemia tumour line.
The cells are distributed onto microplates and exposed to the test compounds for 48 hours.
The cell viability is then quantified by a colorimetric assay, the Microculture Tetrazolium Assay (Cancer Res., 1987, 47, 939-942).

SMILES | IC50 (Bcl-2 protein) [nM] | IC50 [1] [nM]
C[C@@H]1Cc2ccccc2CN1C(=O)c1cc2c(cc1-c1cc(C(=O)N(c3ccc(O)cc3)c3ccc(OCCN4CCOCC4)c(F)c3)c3ccccn13)OCO2 [Example 17, N-{3-Fluoro-4-[2-(morpholin-4-yl)ethoxy]phenyl}-N-(4-hydroxyphenyl)-3-(6-{[(3R)-3-methyl-3,4-dihydroisoquinolin-2(1H)-yl]carbonyl}-1,3-benzodioxol-5-yl)indolizine-1-carboxamide hydrochloride] | 3.4 | 11.8
O=C(c1cc2c(cc1-c1cc(C(=O)N(c3ccc(O)cc3)c3ccc(OCCN4CCOCC4)c(F)c3)c3ccccn13)OCO2)N1CCc2ccccc2C1 [Example 18, 3-[6-(3,4-Dihydroisoquinolin-2(1H)-ylcarbonyl)-1,3-benzodioxol-5-yl]-N-{3-fluoro-4-[2-(morpholin-4-yl)ethoxy]phenyl}-N-(4-hydroxyphenyl)indolizine-1-carboxamide hydrochloride] | 7.5 | 47.7
Cc1ccc(C(=O)N2Cc3ccccc3C[C@H]2CCN2CCOCC2)c(-c2cc(C(=O)N(c3ccccc3)c3ccc(O)cc3)c3n2CCCC3)c1 [Example 19, N-(4-Hydroxyphenyl)-3-(5-methyl-2-{[(3S)-3-[2-(morpholin-4-yl)ethyl]-3,4-dihydroisoquinolin-2(1H)-yl]carbonyl}phenyl)-N-phenyl-5,6,7,8-tetrahydro-indolizine-1-carboxamide hydrochloride] | 8 | 235
O=C(c1cc(-c2ccccc2C(=O)N2Cc3ccccc3C[C@H]2CCN2CCOCC2)n2c1CCCC2)N(c1ccccc1)c1ccc(O)cc1 [Example 20, N-(4-Hydroxyphenyl)-3-(2-{[(3S)-3-[2-(morpholin-4-yl)ethyl]-3,4-dihydroisoquinolin-2(1H)-yl]carbonyl}phenyl)-N-phenyl-5,6,7,8-tetrahydroindolizine-1-carboxamide hydrochloride] | 11.1 | 205
C[C@@H]1Cc2ccccc2CN1C(=O)c1cc2c(cc1-c1cc(C(=O)N(c3ccncc3)c3ccc(O)cc3)c3ccccn13)OCO2 [Example 21, N-(4-Hydroxyphenyl)-3-(6-{[(3R)-3-methyl-3,4-dihydroisoquinolin-2(1H)-yl]carbonyl}-1,3-benzodioxol-5-yl)-N-(pyridin-4-yl)indolizine-1-carboxamide hydrochloride] | 4.6 | 25.3
O=C(c1cc(-c2cc3c(cc2C(=O)N2Cc4ccccc4C[C@H]2CCN2CCOCC2)OCO3)n2cccnc12)N(c1ccccc1)c1ccc(O)cc1 [Example 22, N-(4-Hydroxyphenyl)-6-(6-{[(3S)-3-[2-(morpholin-4-yl)ethyl]-3,4-dihydroisoquinolin-2(1H)-yl]carbonyl}-1,3-benzodioxol-5-yl)-N-phenylpyrrolo[1,2-a]-pyrimidine-8-carboxamide hydrochloride] | 12.9 | 263
N#Cc1cccc(N(C(=O)c2cc(-c3cc4c(cc3C(=O)N3Cc5ccccc5C[C@H]3CCN3CCOCC3)OCO4)n3c2CCCC3)c2ccc(O)cc2)c1 [Example 23, N-(3-Cyanophenyl)-N-(4-hydroxyphenyl)-3-(6-{[(3S)-3-[2-(morpholin-4-yl)ethyl]-3,4-dihydroisoquinolin-2(1H)-yl]carbonyl}-1,3-benzodioxol-5-yl)-5,6,7,8-tetrahydroindolizine-1-carboxamide hydrochloride] | 3.8 | 9.99
O=C(c1cc(-c2cc3c(cc2C(=O)N2Cc4ccccc4C[C@H]2CCN2CCOCC2)OCO3)n2c1CCCC2)N(c1ccc(O)cc1)c1cccc(F)c1 [Example 24, N-(3-Fluorophenyl)-N-(4-hydroxyphenyl)-3-(6-{[(3S)-3-[2-(morpholin-4-yl)ethyl]-3,4-dihydroisoquinolin-2(1H)-yl]carbonyl}-1,3-benzodioxol-5-yl)-5,6,7,8-tetrahydroindolizine-1-carboxamide hydrochloride] | 6.2 | 28.4
O=C(c1cc(-c2cc3c(cc2C(=O)N2Cc4ccccc4C[C@H]2CCN2CCOCC2)OCO3)n2c1CCCC2)N(c1ccc(O)cc1)c1ccc(F)c(F)c1 [Example 25, N-(3,4-Difluorophenyl)-N-(4-hydroxyphenyl)-3-(6-{[(3S)-3-[2-(morpholin-4-yl)ethyl]-3,4-dihydroisoquinolin-2(1H)-yl]carbonyl}-1,3-benzodioxol-5-yl)-5,6,7,8-tetrahydroindolizine-1-carboxamide hydrochloride] | 7.9 | 30
O=C(c1cc(-c2cc3c(cc2C(=O)N2Cc4ccccc4C[C@H]2CCN2CCOCC2)OCO3)n2c1CCCC2)N(c1ccccc1)c1cccc(F)c1 [Example 26, N-(3-Fluorophenyl)-3-(6-{[(3S)-3-[2-(morpholin-4-yl)ethyl]-3,4-dihydro-isoquinolin-2(1H)-yl]carbonyl}-1,3-benzodioxol-5-yl)-N-phenyl-5,6,7,8-tetrahydro-indolizine-1-carboxamide hydrochloride] | 16.6 | 300
O=C(c1cc(-c2cc(Cl)ccc2C(=O)N2Cc3ccccc3C[C@H]2CCN2CCOCC2)n2c1CCCC2)N(c1ccc(O)cc1)c1cccc(F)c1 [Example 27, 3-(5-Chloro-2-{[(3S)-3-[2-(morpholin-4-yl)ethyl]-3,4-dihydroisoquinolin-2(1H)-yl]carbonyl}phenyl)-N-(3-fluorophenyl)-N-(4-hydroxyphenyl)-5,6,7,8-tetrahydroindolizine-1-carboxamide hydrochloride] | 7.7 | 44.1
COc1ccc(C(=O)N2Cc3ccccc3C[C@H]2CCN2CCOCC2)c(-c2cc(C(=O)N(c3ccccc3)c3ccc(O)cc3)c3n2CCCC3)c1 [Example 28, N-(4-Hydroxyphenyl)-3-(5-methoxy-2-{[(3S)-3-[2-(morpholin-4-yl)ethyl]-3,4-dihydroisoquinolin-2(1H)-yl]carbonyl}phenyl)-N-phenyl-5,6,7,8-tetrahydro-indolizine-1-carboxamide hydrochloride] | 8.8 | 112
COc1ccc(-c2cc(C(=O)N(c3ccccc3)c3ccc(O)cc3)c3n2CCCC3)c(C(=O)N2Cc3ccccc3C[C@H]2CCN2CCOCC2)c1 [Example 29, N-(4-Hydroxyphenyl)-3-(4-methoxy-2-{[(3S)-3-[2-(morpholin-4-yl)ethyl]-3,4-dihydroisoquinolin-2(1H)-yl]carbonyl}phenyl)-N-phenyl-5,6,7,8-tetrahydro-indolizine-1-carboxamide hydrochloride] | 19 | 163
C[C@@H]1Cc2ccccc2CN1C(=O)c1cc2c(cc1-c1cc(C(=O)N(c3ccc(O)cc3)c3ccc(CN4CCCC(F)(F)C4)cc3)c3ccccn13)OCO2 [Example 30, N-{4-[(3,3-Difluoropiperidin-1-yl)methyl]phenyl}-N-(4-hydroxyphenyl)-3-(6-{[(3R)-3-methyl-3,4-dihydroisoquinolin-2(1H)-yl]carbonyl}-1,3-benzodioxol-5-yl)indolizine-1-carboxamide hydrochloride] | 10.4 | 52.3
C[C@@H]1Cc2ccccc2CN1C(=O)c1cc2c(cc1-c1cc(C(=O)N(c3ccc(O)cc3)c3ccc4ncccc4c3)c3ccccn13)OCO2 [Example 31, N-(4-Hydroxyphenyl)-3-(6-{[(3R)-3-methyl-3,4-dihydroisoquinolin-2(1H)-yl]carbonyl}-1,3-benzodioxol-5-yl)-N-(quinolin-6-yl)indolizine-1-carboxamide hydrochloride] | 5.4 | 13.7
Cc1cc(N(C(=O)c2cc(-c3cc4c(cc3C(=O)N3Cc5ccccc5C[C@H]3C)OCO4)n3ccccc23)c2ccc(O)cc2)ccn1 [Example 32, N-(4-Hydroxyphenyl)-3-(6-{[(3R)-3-methyl-3,4-dihydroisoquinolin-2(1H)-yl]carbonyl}-1,3-benzodioxol-5-yl)-N-(2-methylpyridin-4-yl)indolizine-1-carboxamide hydrochloride] | 5 | 32.7
C[C@@H]1Cc2ccccc2CN1C(=O)c1cc2c(cc1-c1cc(C(=O)N(c3ccc(O)cc3)c3cnc4c(ccn4C)c3)c3ccccn13)OCO2 [Example 33, N-(4-Hydroxyphenyl)-3-(6-{[(3R)-3-methyl-3,4-dihydroisoquinolin-2(1H)-yl]carbonyl}-1,3-benzodioxol-5-yl)-N-(1-methyl-1H-pyrrolo[2,3-b]pyridin-5-yl)indolizine-1-carboxamide hydrochloride] | 4.6 | 6.33
C[C@@H]1Cc2ccccc2CN1C(=O)c1cc2c(cc1-c1cc(C(=O)N(c3ccc(O)cc3)c3cccnc3)c3ccccn13)OCO2 [Example 34, N-(4-Hydroxyphenyl)-3-(6-{[(3R)-3-methyl-3,4-dihydroisoquinolin-2(1H)-yl]carbonyl}-1,3-benzodioxol-5-yl)-N-(pyridin-3-yl)indolizine-1-carboxamide hydrochloride] | 5.6 | 27.3
C[C@@H]1Cc2ccccc2CN1C(=O)c1cc2c(cc1-c1cc(C(=O)N(c3ccc(O)cc3)c3ccc(CCN4CCCC(F)(F)C4)cc3)c3ccccn13)OCO2 [Example 35, N-{4-[2-(3,3-Difluoropiperidin-1-yl)ethyl]phenyl}-N-(4-hydroxyphenyl)-3-(6-{[(3R)-3-methyl-3,4-dihydroisoquinolin-2(1H)-yl]carbonyl}-1,3-benzodioxol-5-yl)indolizine-1-carboxamide hydrochloride] | 15.1 | 62.2
